Source: ChEMBL document CHEMBL1201862, “PubChem BioAssay data set” (2004)
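Results reflect a 48-hour exposure of cells in 96-well plates to compound at five concentrations. GI50 marks 50% less growth.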 Calls of active or inactive are those of the source. No stated cut-off is given here; in the data, active = GI50 up to about 1.1 µM and inactive = higher.

Key:
Test in all cases: DTP human tumour cell line panel, 48 h
CCRF-CEM = system: CCRF-CEM
HCT-15 = system: HCT-15
NCI-H23 = system: NCI-H23
HT-29 = system: HT-29
HOP-92 = system: HOP-92
SNB-19 = system: SNB-19
SF-295 = system: SF-295
EKVX = system: EKVX
CAKI-1 = system: CAKI-1
SF-539 = system: SF-539
HL-60 = system: HL-60
SK-MEL-28 = system: SK-MEL-28
ACHN = system: ACHN
NCI-H460 = system: NCI-H460
OVCAR-3 = system: OVCAR-3
SK-MEL-5 = system: SK-MEL-5
UO-31 = system: UO-31
Malme-3M = system: Malme-3M

Measured: GI50

Cc1c(C#N)c(=O)[nH]c(=O)n1CCN1CCN(C(=O)NCCCCCCNC(=O)N2CCN(CCn3c(C)c(C#N)c(=O)[nH]c3=O)CC2)CC1
inactive: CCRF-CEM > 100 µM | NCI-H23 > 100 µM | HT-29 > 100 µM | HOP-92 > 100 µM | SNB-19 > 100 µM | SF-295 > 100 µM | EKVX > 100 µM | CAKI-1 > 100 µM | SF-539 > 100 µM | HL-60 > 100 µM | SK-MEL-28 > 100 µM | ACHN > 100 µM | NCI-H460 > 100 µM | OVCAR-3 > 100 µM | SK-MEL-5 > 100 µM
> 100 µM: HCT-15

CCCCNC(=S)Nn1c(-c2ccccc2)nc2ccccc2c1=O
inactive: CCRF-CEM 38.3 µM | UO-31 76.9 µM | NCI-H23 > 100 µM | Malme-3M > 100 µM | HT-29 68.5 µM | HOP-92 67.3 µM | SF-295 > 100 µM | CAKI-1 > 100 µM | SF-539 > 100 µM | HL-60 25.7 µM | SK-MEL-28 9.68 µM | ACHN > 100 µM | NCI-H460 > 100 µM | SK-MEL-5 > 100 µM
> 100 µM: HCT-15

CN(C)C(=O)C(NCCO)c1ccccc1 (centres undefined)
inactive: UO-31 > 100 µM | NCI-H23 83 µM | HT-29 57.7 µM | HOP-92 > 100 µM | SNB-19 > 100 µM | SF-295 > 100 µM | EKVX > 100 µM | CAKI-1 > 100 µM | SF-539 > 100 µM | SK-MEL-28 > 100 µM | ACHN > 100 µM | NCI-H460 > 100 µM | OVCAR-3 62.1 µM | SK-MEL-5 52.8 µM
> 100 µM: HCT-15

O=C1C=CC2(CCC23C=CC(=O)O3)O1 (centres undefined)
> 100 µM: HCT-15
inactive: CCRF-CEM 86.5 µM | UO-31 > 100 µM | NCI-H23 > 100 µM | Malme-3M > 100 µM | HT-29 > 100 µM | SNB-19 > 100 µM | SF-295 > 100 µM | EKVX > 100 µM | SF-539 > 100 µM | HL-60 74.8 µM | SK-MEL-28 > 100 µM | ACHN > 100 µM | NCI-H460 > 100 µM | OVCAR-3 > 100 µM

NC(=O)C(=O)C1CCC2=C(Sc3ccccc3N2)C1=O (centres undefined)
inactive: CCRF-CEM > 10 µM | UO-31 > 100 µM | NCI-H23 > 100 µM | Malme-3M > 100 µM | HOP-92 27.4 µM | SNB-19 > 100 µM | EKVX > 100 µM | CAKI-1 > 100 µM | SF-539 > 100 µM | HL-60 > 100 µM | SK-MEL-28 > 100 µM | ACHN > 100 µM | NCI-H460 > 100 µM | OVCAR-3 > 100 µM | SK-MEL-5 > 100 µM
> 100 µM: HCT-15

COc1ccccc1NC(=O)C1=C(C)NC(C)=C(C(=O)Nc2ccccc2OC)C1c1ccc(C)cc1
33.1 µM: HCT-15
inactive: UO-31 43 µM | NCI-H23 94.8 µM | Malme-3M > 100 µM | HT-29 > 100 µM | HOP-92 > 100 µM | SNB-19 > 100 µM | SF-295 68.4 µM | EKVX 47.6 µM | CAKI-1 > 100 µM | SF-539 > 100 µM | SK-MEL-28 > 100 µM | ACHN 17.3 µM | NCI-H460 31.8 µM | OVCAR-3 > 100 µM | SK-MEL-5 16.9 µM

O=C(Oc1ccc2c(-c3ccccc3)c(C(=O)Nc3ccc(Cl)cc3)c(=O)oc2c1)c1ccccc1
> 100 µM: HCT-15
inactive: CCRF-CEM > 100 µM | UO-31 > 100 µM | NCI-H23 > 100 µM | Malme-3M > 100 µM | HT-29 > 100 µM | SNB-19 > 100 µM | SF-295 > 100 µM | EKVX > 100 µM | SF-539 > 100 µM | HL-60 > 100 µM | SK-MEL-28 > 100 µM | ACHN > 100 µM | NCI-H460 > 100 µM | OVCAR-3 > 100 µM | SK-MEL-5 > 100 µM
